Measurements taken from patent US7601743B2, “Cyano anthranilamide insecticides” (Syngenta Crop Protection, Inc., priority 2005, dated 2009).

Legend:
Format in all cases: in vivo
[1] = tested on: Diabrotica balteata; experiment: Activity against Diabrotica balteata (sprayed maize seedlings); settings: 144 h, 400 ppm spray on maize seedlings, 2nd instar larvae, 6 days, read-out: percentage reduction in the population (% activity)
Description: Maize seedlings are sprayed with an aqueous emulsion spray mixture comprising 400 ppm of active ingredient and, after the spray coating has dried on, populated with 10 larvae (2nd instar) of Diabrotica balteata and introduced into a plastic container. 6 days later, the percentage reduction in the population (% activity) is determined by comparing the number of dead larvae between the treated and untreated plants.

[2] = tested on: Plutella xylostella; experiment: Activity against Plutella xylostella; settings: 72 h, 400 ppm spray on young cabbage plants, 3rd instar, 3 days, read-out: percentage reduction in the population and in the feeding damage (% activity)
Description: Young cabbage plants are sprayed with an aqueous emulsion spray mixture comprising 400 ppm of active ingredient and, after the spray coating has dried on, populated with 10 caterpillars (3rd instar) of Plutella xylostella and introduced into a plastic container. 3 days later, the percentage reduction in the population and in the feeding damage (% activity) are determined by comparing the number of dead caterpillars and the feeding damage between the treated and untreated plants.

[3] = tested on: Heliothis virescens; experiment: Activity against Heliothis virescens (foliar application); settings: 144 h, 400 ppm spray on young soya plants, 1st instar, 6 days, read-out: percentage reduction in the population and in the feeding damage (% activity)
Description: Young soya plants are sprayed with an aqueous emulsion spray mixture comprising 400 ppm of active ingredient and, after the spray coating has dried on, populated with 10 caterpillars (1st instar) of Heliothis virescens and introduced into a plastic container. 6 days later, the percentage reduction in the population and in the feeding damage (% activity) are determined by comparing the number of dead caterpillars and the feeding damage between the treated and untreated plants.

[4] = tested on: Spodoptera littoralis; experiment: Activity against Spodoptera littoralis (sprayed soya plants); settings: 72 h, 400 ppm spray on young soya plants, 1st instar, 3 days, read-out: percentage reduction in the population and in the feeding damage (% activity)
Description: Young soya plants are sprayed with an aqueous emulsion spray mixture comprising 400 ppm of active ingredient and, after the spray coating has dried on, populated with 10 caterpillars (1st instar) of Spodoptera littoralis and introduced into a plastic container. 3 days later, the percentage reduction in the population and in the feeding damage (% activity) are determined by comparing the number of dead caterpillars and the feeding damage between the treated and untreated plants.

Measured: inhibition at 400 ppm

Cc1cc(C#N)cc(C(=O)NC2(C3CC3)CC2)c1NC(=O)c1cc(C(F)(F)F)nn1-c1ncccc1Cl [A.1.1, 2-(3-Chloro-pyridin-2-yl)-5-trifluoromethyl-2H-pyrazole-3-carboxylic acid [2-(bicyclopropyl-1-ylcarbamoyl)-4-cyano-6-methyl-phenyl]-amide]
> 80%: all assays above
